Measurements published in patent US8674061B2, “Multiligand constructs” (priority 2008, dated 2014).

Key:
Assay type in all cases: binding
Conditions in all cases: relative to 6′SLN = 1, KD based on concentration of sialic acid residues, averaged
[1] = tested on: influenza virus A/Nib/23/89M-MA (H1N1)
[2] = tested on: influenza virus A/Nib/26/90M (H3N2)
[3] = tested on: influenza virus B/Nib/48/90M

Neu5Acα2-6Galβ1-4GlcNAcβ-O— [6′SLN, reference compound]
1: Relative inhibitory activity of tetraligand constructs [1] | Relative inhibitory activity of triligand constructs [1] | Relative inhibitory activity of tetraligand constructs [2] | Relative inhibitory activity of triligand constructs [2] | Relative inhibitory activity of tetraligand constructs [3] | Relative inhibitory activity of triligand constructs [3]
